Laboratory results as given in the supplement of paper PMC11061612.

Key:
Experiment in all cases: Bliss excess, mean over the matrix (fraction); higher = more synergy
[1] = test system: BHT-101 (Thyroid Gland Carcinoma)
Outline: (§1)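 Cell lines in DMEM/F12 or RPMI with 10% FBS were plated in 1536-well plates, held 24 hours at 37°C, 5% CO2, then given two-drug dose matrices for 72 hours (DMSO typically 0.2%). Viability was read by CellTiter-Glo 2.0 luminescence and scaled as inhibition from 0 (vehicle wells) to 1 (blank wells). Combination Emax is the second-highest inhibition in the matrix; Bliss excess is observed combination effect minus expected EA + EB − EA·EB, EA and EB being single-agent effects.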

[2] = test system: C-33-A (Cervical Carcinoma)
Outline: as §1

[3] = test system: CPC-N (Small Cell Lung Carcinoma)
Outline: as §1

ES6 (Ewing's Sarcoma) = test system: ES6 (Ewing's Sarcoma)
Outline: as §1

KALS-1 (Glioblastoma) = test system: KALS-1 (Glioblastoma)
Outline: as §1

[4] = test system: LS-1034 (Colorectal Carcinoma)
Outline: as §1

[5] = test system: MDA-MB-415 (Breast Carcinoma)
Outline: as §1

[6] = test system: MM1S (Plasma Cell Myeloma)
Outline: as §1

[7] = test system: MOLP-8 (Plasma Cell Myeloma)
Outline: as §1

[8] = test system: MS-1 (Small Cell Lung Carcinoma)
Outline: as §1

[9] = test system: NCI-H1876 (Small Cell Lung Carcinoma)
Outline: as §1

[10] = test system: NCI-H1963 (Small Cell Lung Carcinoma)
Outline: as §1

[11] = test system: NCI-H3118 (Head and Neck Carcinoma)
Outline: as §1

[12] = test system: OVCAR-3 (Ovarian Carcinoma)
Outline: as §1

[13] = test system: PA-TU-8988T (Pancreatic Carcinoma)
Outline: as §1

[14] = test system: Raji (Burkitt's Lymphoma)
Outline: as §1

[15] = test system: SNU-C2B (Colorectal Carcinoma)
Outline: as §1

[16] = test system: T84 (Colorectal Carcinoma)
Outline: as §1

[17] = test system: TUR (Acute Myeloid Leukemia)
Outline: as §1

UACC-257 (Melanoma) = test system: UACC-257 (Melanoma)
Outline: as §1

## Cc1cc2ncnn2cc1Nc1ncc2c(n1)n(C1CCOCC1)c(=O)n2C [AZD7648] + C[C@@H]1COCCN1C2=NC(=NC(=C2)C3(CC3)[S@](=N)(=O)C)C4=C5C=CNC5=NC=C4 [AZD6738] (first compound max 10 µM, 7x7, partner max 10 µM)
[1]
  Bliss excess: 0.0197
[2]
  Bliss excess: 0.007
[3]
  Bliss excess: -0.0013
ES6 (Ewing's Sarcoma)
  Bliss excess: -0.0082
KALS-1 (Glioblastoma)
  Bliss excess: 0.0135
[4]
  Bliss excess: 0.0327
[5]
  Bliss excess: 0.0354
[6]
  Bliss excess: 0.014
[7]
  Bliss excess: 0.0234
[8]
  Bliss excess: -0.0266
[9]
  Bliss excess: 0.0004
[10]
  Bliss excess: 0.0138
[11]
  Bliss excess: 0.0555
[12]
  Bliss excess: 0.0009
[13]
  Bliss excess: 0.003
[14]
  Bliss excess: 0.0011
[15]
  Bliss excess: -0.0036
[16]
  Bliss excess: 0.0189
[17]
  Bliss excess: 0.0024
UACC-257 (Melanoma)
  Bliss excess: 0.0075

## COc1cccc(OCCCN)c1-c1cc(Nc2cnc(C#N)cn2)n[nH]1 [Prexasertib] + CN(C)CCCOc1ccc(-c2ccc3ncc4c(c3c2)n(C2CCOCC2)c(=O)n4C)cn1 [AZD0156] (first compound max 1 µM, 7x7, partner max 1 µM)
[1]
  Bliss excess: 0.0275
[2]
  Bliss excess: -0.0158
[3]
  Bliss excess: 0.0081
ES6 (Ewing's Sarcoma)
  Bliss excess: 0.0091
KALS-1 (Glioblastoma)
  Bliss excess: -0.0669
[4]
  Bliss excess: -0.0471
[5]
  Bliss excess: -0.0099
[6]
  Bliss excess: -0.0718
[7]
  Bliss excess: -0.0203
[8]
  Bliss excess: 0.0205
[9]
  Bliss excess: -0.044
[10]
  Bliss excess: -0.0253
[11]
  Bliss excess: -0.036
[12]
  Bliss excess: -0.0178
[13]
  Bliss excess: 0.0179
[14]
  Bliss excess: -0.0105
[15]
  Bliss excess: -0.0133
[16]
  Bliss excess: 0.0016
[17]
  Bliss excess: 0.013
UACC-257 (Melanoma)
  Bliss excess: 0.0044

## CCN(CCO)CCCOc1ccc2c(Nc3cc(CC(=O)Nc4cccc(F)c4)[nH]n3)ncnc2c1 [AZD2811] + O=C(c1cc(Cc2n[nH]c(=O)c3ccccc23)ccc1F)N1CCN(C(=O)C2CC2)CC1 [Olaparib] (first compound max 1 µM, 7x7, partner max 10 µM)
[1]
  Bliss excess: -0.0193
[2]
  Bliss excess: -0.0108
[3]
  Bliss excess: -0.0238
ES6 (Ewing's Sarcoma)
  Bliss excess: -0.0457
KALS-1 (Glioblastoma)
  Bliss excess: 0.0144
[4]
  Bliss excess: -0.0253
[5]
  Bliss excess: 0.0059
[6]
  Bliss excess: 0.0541
[7]
  Bliss excess: 0.0384
[8]
  Bliss excess: 0.0107
[9]
  Bliss excess: -0.114
[10]
  Bliss excess: -0.0623
[11]
  Bliss excess: 0.0075
[12]
  Bliss excess: -0.0051
[13]
  Bliss excess: 0.0228
[14]
  Bliss excess: 0.0005
[15]
  Bliss excess: -0.014
[16]
  Bliss excess: -0.0067
[17]
  Bliss excess: 0.0637
UACC-257 (Melanoma)
  Bliss excess: -0.0322

## Cc1cc2ncnn2cc1Nc1ncc2c(n1)n(C1CCOCC1)c(=O)n2C [AZD7648] + CN(C)CCCOc1ccc(-c2ccc3ncc4c(c3c2)n(C2CCOCC2)c(=O)n4C)cn1 [AZD0156] (first compound max 10 µM, 7x7, partner max 1 µM)
[1]
  Bliss excess: 0.0659
[2]
  Bliss excess: 0.033
[3]
  Bliss excess: 0.0326
ES6 (Ewing's Sarcoma)
  Bliss excess: -0.0234
KALS-1 (Glioblastoma)
  Bliss excess: 0.015
[4]
  Bliss excess: -0.0187
[5]
  Bliss excess: -0.0254
[6]
  Bliss excess: 0.0196
[7]
  Bliss excess: 0.0712
[8]
  Bliss excess: 0.0245
[9]
  Bliss excess: 0.0523
[10]
  Bliss excess: 0.0494
[11]
  Bliss excess: 0.0143
[12]
  Bliss excess: 0.0157
[13]
  Bliss excess: 0.0174
[14]
  Bliss excess: 0.0416
[15]
  Bliss excess: -0.0251
[16]
  Bliss excess: 0.0332
[17]
  Bliss excess: 0.0283
UACC-257 (Melanoma)
  Bliss excess: -0.02

## COc1nnc2ccc(N3CCC(c4ccc(OCCN5CCN(C)C(=O)[C@H]5C)cc4)CC3)nn12 [AZD5153] + Cn1cnc2c(F)c(Nc3ccc(Br)cc3Cl)c(C(=O)NOCCO)cc21 [Selumetinib] (first compound max 1 µM, 7x7, partner max 10 µM)
[1]
  Bliss excess: -0.0593
[2]
  Bliss excess: 0.0725
[3]
  Bliss excess: -0.0222
ES6 (Ewing's Sarcoma)
  Bliss excess: 0.053
KALS-1 (Glioblastoma)
  Bliss excess: -0.0421
[4]
  Bliss excess: 0.0264
[5]
  Bliss excess: 0.0512
[6]
  Bliss excess: 0.109
[7]
  Bliss excess: 0.0094
[8]
  Bliss excess: -0.0665
[9]
  Bliss excess: -0.0499
[10]
  Bliss excess: -0.0176
[11]
  Bliss excess: -0.0164
[12]
  Bliss excess: -0.0489
[13]
  Bliss excess: 0.0423
[14]
  Bliss excess: -0.0445
[15]
  Bliss excess: 0.019
[16]
  Bliss excess: -0.0588
[17]
  Bliss excess: -0.0567
UACC-257 (Melanoma)
  Bliss excess: 0.0284

## CC(=O)c1c(C)c2cnc(Nc3ccc(N4CCNCC4)cn3)nc2n(C2CCCC2)c1=O [Palbociclib] + Cc1c2c(nn1C)CSCc1cc(n(C)n1)CSc1cc(c3ccccc3c1)OCCCc1c(C(=O)O)n(C)c3c-2c(Cl)ccc13 [AZD5991] (first compound max 10 µM, 7x7, partner max 1 µM)
[1]
  Bliss excess: -0.0105
[2]
  Bliss excess: -0.0163
[3]
  Bliss excess: 0.0035
ES6 (Ewing's Sarcoma)
  Bliss excess: -0.0326
KALS-1 (Glioblastoma)
  Bliss excess: -0.0609
[4]
  Bliss excess: -0.064
[5]
  Bliss excess: -0.113
[6]
  Bliss excess: -0.0482
[7]
  Bliss excess: 0.0347
[8]
  Bliss excess: -0.0451
[9]
  Bliss excess: 0.0191
[10]
  Bliss excess: -0.0047
[11]
  Bliss excess: 0.0084
[12]
  Bliss excess: -0.0553
[13]
  Bliss excess: -0.0361
[14]
  Bliss excess: -0.0109
[15]
  Bliss excess: -0.0477
[16]
  Bliss excess: -0.0578
[17]
  Bliss excess: -0.0441
UACC-257 (Melanoma)
  Bliss excess: -0.026

## CCc1c2c(nc3ccc(O)cc13)-c1cc3c(c(=O)n1C2)COC(=O)[C@]3(O)CC [SN-38] + CN(C)CCCOc1ccc(-c2ccc3ncc4c(c3c2)n(C2CCOCC2)c(=O)n4C)cn1 [AZD0156] (first compound max 0.3 µM, 7x7, partner max 1 µM)
[1]
  Bliss excess: 0.0664
[2]
  Bliss excess: 0.0058
[3]
  Bliss excess: 0.199
ES6 (Ewing's Sarcoma)
  Bliss excess: 0.0441
KALS-1 (Glioblastoma)
  Bliss excess: 0.0189
[4]
  Bliss excess: 0.139
[5]
  Bliss excess: -0.0262
[6]
  Bliss excess: -0.0498
[7]
  Bliss excess: -0.142
[8]
  Bliss excess: -0.0384
[9]
  Bliss excess: -0.0111
[10]
  Bliss excess: 0.0847
[11]
  Bliss excess: 0.0864
[12]
  Bliss excess: -0.037
[13]
  Bliss excess: 0.0755
[14]
  Bliss excess: -0.0003
[15]
  Bliss excess: 0.0089
[16]
  Bliss excess: 0.108
[17]
  Bliss excess: 0.0516
UACC-257 (Melanoma)
  Bliss excess: 0.0023

## C[C@@H]1COCCN1c1cc(C2([S@](C)(=N)=O)CC2)nc(-c2ccnc3[nH]ccc23)n1 [AZD6738] + O=C(c1cc(Cc2n[nH]c(=O)c3ccccc23)ccc1F)N1CCN(C(=O)C2CC2)CC1 [Olaparib] (first compound max 10 µM, 7x7, partner max 10 µM)
[1]
  Bliss excess: 0.016
[2]
  Bliss excess: -0.0049
[3]
  Bliss excess: 0.015
ES6 (Ewing's Sarcoma)
  Bliss excess: 0.0128
KALS-1 (Glioblastoma)
  Bliss excess: 0.0028
[4]
  Bliss excess: -0.0391
[5]
  Bliss excess: 0.0239
[6]
  Bliss excess: -0.0388
[7]
  Bliss excess: 0.003
[8]
  Bliss excess: 0.0056
[9]
  Bliss excess: -0.005
[10]
  Bliss excess: 0.0725
[11]
  Bliss excess: -0.0038
[12]
  Bliss excess: 0.0782
[13]
  Bliss excess: 0.0472
[14]
  Bliss excess: -0.0204
[15]
  Bliss excess: 0.0123
[16]
  Bliss excess: -0.027
[17]
  Bliss excess: 0.0244
UACC-257 (Melanoma)
  Bliss excess: -0.0009
